Test results taken from EP3403652A1, “PREVENTION AND TREATMENT OF FIBROBLAST GROWTH FACTOR 23 (FGF23)-ASSOCIATED DISORDERS INCLUDING CHRONIC KIDNEY DISEASE (CKD)” (Veterinärmedizinische Universität Wien, priority 2017, dated 2018).

How the values were obtained:
[1] = molecular target: WNK-regulated kinase SPAK (Ste20-like proline/alanine-rich kinase) (Homo sapiens, UniProt Q9UEW8); conditions: literature (Kikuchi et al. 2014); cited from earlier work
renal distal tubules [2] = test: Intracellular Ca2+ imaging by 2-photon microscopy in Fluo-4-loaded live kidney slices ex vivo; type: cell-based, mice; conditions: Klotho/VDR kidney slices; co-treatment with 200 ng/ml rFGF23, 2 h; ruthenium red 10 µM; closantel 30 ng/mL; PD173074 10 nM (iFGFR1) or 25 nM (FGFR1/3); iFGFR pan 120 nM
Method: (§1) The preparation of kidney slices for ex vivo experiments was performed as described in Andrukhova O et al. (EMBO J., 2014. 33, 229-246). Longitudinal 200-µm-thick live slices from freshly isolated kidneys of 3-month-old male WT and Klotho/VDR mice were prepared using a Leica VT1000 Vibratome (Leica Microsystems), and were used for ex vivo treatment with various substances as described below.
(§2) Longitudinal 200-µm-thick live slices of freshly isolated kidneys were prepared using a Leica VT1000 Vibratome (Leica Microsystems). For Na^+ imaging, the kidney slices of WT and Klotho/VDR mice were incubated for 60 min at 37°C with 2 µM of the sodium-sensitive dye SBFI (Molecular Probes), diluted in DMSO (Merck Millipore International) and 20% Pluronic (Merck Millipore International). For Ca^2+ imaging, the kidney slices were incubated for 30 min at 37°C with 2 µM of the calcium-sensitive dye Fluo-4 (Molecular Probes), diluted in DMSO and 20% Pluronic. Thereafter, the slices were washed two times for 20 min each in 0.1M PBS, and were subsequently incubated in vitro with vehicle (PBS), rFGF23 R176/179Q [(100 or 200 ng/ml) kindly provided by Amgen Inc., Thousand Oaks, CA, USA], PD173074 (Sigma-Aldrich) (10 nM for inhibiting FGFR1 and 25 nM for inhibiting FGFR1 and 3), pan FGFR inhibitor [(120 nM) FIIN1 hydrochloride, Tocris Bioscience, Bristol, UK)], WNK signalling inhibitor Closantel (30 ng/mL, generous gift of Dario R. Alessi) alone or combined at 37°C, 5% CO2 / 95% air humidified atmosphere for 2 h. […] For visualization of intracellular Na^+ and Ca^2+ content, SBFI or Fluo-4 were excited by a Ti:sapphire laser (Chameleon, Coherent Inc.) at 820 nm. Images (512 × 512 pixels) were acquired every 30 sec at a depth of 60 - 80 µm. Fluorescence images were analyzed using Image J software. The whole epithelial layer of the distal tubules was selected by manually drawing the region of interest (ROI) to quantify intracellular Na^+ and Ca^2+ levels. Fluorescence intensity was quantified in 4-9 ROIs per image, and the ratio between the fluorescence intensity and the ROI area was calculated for each tubule. This ratio was used for all subsequent calculations.
(§3) To gain more insight into the functional role of the rFGF23-induced increase in distal renal tubular ion channel expression and the FGF receptors involved, we performed intracellular Ca^2+ and Na^+ imaging by 2-photon microscopy in Fluo-4- or SFBI-loaded and subsequently rFGF23-treated (100 or 200 ng/ml for 2 h), 200-µm-thick renal slices prepared from WT and Klotho/VDR mice.
(§4) In this example it was assessed whether the Klotho-independent FGF23 signalling pathway is mediated through FGFR3 and/or 4, given that FGFR2 expression was low in distal renal tubules (Figure 12A). To dissect between the latter receptors, Klotho/VDR kidney slices were treated with rFGF23 alone or in combination with an FGFR1/FGFR3 inhibitor and the WNK signalling inhibitor closantel.

renal distal tubules [3] = test: Intracellular Na+ imaging by 2-photon microscopy in SBFI-loaded live kidney slices ex vivo; type: cell-based, mice; conditions: Klotho/VDR kidney slices; co-treatment with 200 ng/ml rFGF23, 2 h; closantel 30 ng/mL; BF 15 µM; PD173074 10 nM (iFGFR1) or 25 nM (FGFR1/3); iFGFR pan 120 nM
Method: as §1, §2, §3, §4

5/6 Nx (CKD) WT mice = test: 5/6 nephrectomy CKD model, closantel orally via the diet over 8 weeks; type: in vivo
Method: The 5/6 nephrectomy (5/6 Nx) was performed in two stages (Leelahavanichkul A et al., Kidney Int. 78, 2010. 1136-1153) under isoflurane anesthesia (Fig. 1A). Pain was managed by s.c. injections of buprenorphine, metamizol and meloxicam. Additionally, the animals were treated for 3 days postsurgery with the analgesic piritramid via the drinking water, starting 6 h postsurgery. At the first stage (wk -1), the left kidney was decapsulated to avoid ureter and adrenal damage, and the upper and lower poles were partially resected via a left flank incision. Bleeding was controlled by microfibrillar collagen hemostasis (Avitene, Davol, Cranston, RI). The upper and lower poles were weighed. One week later, the entire right kidney was removed via a right flank incision and weighed. Animals with insufficient kidney resection as determined by a ratio of < 0.55 for the removed left kidney weight to the removed right kidney weight were euthanized. In the Sham surgery control mice, a left flank incision was performed at step 1, both poles of kidney were identified, then the flank incision was closed; a subsequent right flank incision was performed at step 2; the right renal artery was identified, then the flank incision was closed. After each flank incision, muscles and skin were repositioned and sewed. Mortality was tracked throughout the study. Necropsy was not performed on animals that died early.
For this experiment, WT Sham and 5/6-Nx mice were fed powdered rescue diet throughout the study. Closantel (Abcam) was dissolved in 100% ethanol (vehicle), and mixed into the moistened diet. To achieve a loading dose of 5 mg/kg body weight, the drug was mixed into the food at an initial concentration of 30 mg/kg diet. […] All mice were killed 8 weeks postsurgery.
Central arterial pressure and cardiac hemodynamic parameters were assessed using a SPR-671NR pressure catheter (1.4 French; Millar Instruments). Mice were anesthetized with 1.5% isoflurane in oxygen. The catheter was inserted into the ascending aorta for measurement of central arterial pressure. Parameters of LV function (i.e., maximum rate of the pressure rise, contractility index, end-diastolic pressure, and isovolumetric relaxation time) were measured by placing the catheter into the left ventricle. All pressure recordings were performed at the same anesthesia level. Hemodynamic measurements were recorded over 5 min, and traces were analyzed using LabChartPro software and a blood pressure (BP) module. After pressure measurements, all animals were euthanized.
The blood volume was determined from plasma volume and hematocrit as described in Lee H B & Blaufox M D (J. Nucl. Med., 1985. 26, 72-76). Plasma volume was determined by Evans blue dye dilution (Barron W M et al., J. Clin. Invest, 1984. 73, 923-932). Briefly, 20 µl of a 0.4% (wt/vol) solution of Evans blue (Sigma) in sterile physiological saline was injected into a tail vein. Blood samples (10 µl) were collected at 10 min and 30 min after injection to measure disappearance kinetics. Tubes were centrifuged and the hematocrit was recorded. Evans blue concentration in the plasma was measured in duplicate as optical density using the 2-wavelength method.
Total kidney homogenates, kidney cortex homogenates or total cell membrane preparations were solubilized in Laemmli sample buffer, fractionated on SDS- PAGE (30 µg/well) and transferred to a nitrocellulose membrane (Thermo Scientific). […] After washing, membranes were incubated with horseradish peroxidase-conjugated secondary antibodies (Amersham Life Sciences). Specific signal was visualized by ECL kit (Amersham Life Sciences). The protein bands were quantified by Image Quant 5.0 software (Molecular Dynamics). Loading of the samples was normalized to Ponceau S stain. The expression levels were normalized to β-actin expression. […]

[4] = in vivo, cited from earlier work
[5] = Western blotting, renal total homogenates, CKD mice, 8 weeks postsurgery
[6] = oral via diet once a week, 8 weeks postsurgery

SMILES: Cc1cc(C(C#N)c2ccc(Cl)cc2)c(Cl)cc1NC(=O)c1cc(I)cc(I)c1O (centres unmarked) [closantel, N-[5-chloro-4-[(4-chlorophenyl)-cyanomethyl]-2-methylphenyl]-2-hydroxy-3,5-diiodobenzamide]
- inhibition of the WNK-regulated kinase SPAK [1]: potent inhibitors
- rFGF23-induced increase in intracellular Ca^2+ fluorescence (distal tubular Ca^2+ uptake) (renal distal tubules [2]): abrogated
- rFGF23-induced increase in intracellular Na^+ fluorescence (distal tubular Na^+ uptake) (renal distal tubules [3]): abrogated
- urinary excretion of Na^+ (5/6 Nx (CKD) WT mice; CKD mice, 8 weeks postsurgery): increased
- disease progression in CKD mice (5/6 Nx (CKD) WT mice; Figure 13 legend, oral via diet once a week over 8 weeks): largely protects
- renal pNCC expression (5/6 Nx (CKD) WT mice; [5]): downregulation
- renal pNKCC expression (5/6 Nx (CKD) WT mice; [5]): downregulation
- renal pWNK1 expression (5/6 Nx (CKD) WT mice; [5]): downregulation
- CKD-induced increase in HW/BW ratio (5/6 Nx (CKD) WT mice; [6]): largely prevented
- CKD-induced increase in blood pressure (5/6 Nx (CKD) WT mice; [6]): largely prevented
- CKD-induced increase in blood volume (5/6 Nx (CKD) WT mice; [6]): largely prevented
- CKD-driven decline in GFR (5/6 Nx (CKD) WT mice; oral via diet once a week, loading dose 5 mg/kg body weight, 8 weeks postsurgery): largely prevented
- bioavailability ([4]; po): ~50%
- plasma half-life [4]: 14 days
